Test results published in patent publication US9540615B2, “Combined chemical and genetic approaches for generation of induced pluripotent stem cells” (The Scripps Research Institute, priority 2008, dated 2017).

Legend:
Format in all cases: cell-based, mouse
mES R1 cells = test: Proliferation assay; settings: 2 μM BayK, 1 μM BIX or both; 15, 24 and 48 hours; compared to DMSO, n=3
Description: mES R1 cells were plated onto gelatin-coated 6-well plates at a density of 2×10^5 cells/well in complete mES cell media. Upon cell attachment, app. 12 hours, the cells were treated either with DMSO, 1 μM BIX, 2 μM BayK, and a combination of both, in triplicate. At 15, 24 and 48 hours, the cells were detached using trypsin, and counted using a hemocytometer. Trypan blue (Sigma-Aldrich, St. Louis, Mo.) was used for dead cell exclusion.

[1] = tested on: 129 MEFs transduced with OK (Oct4 and Klf4); test: Screen for iPSC generation from OK-transduced 129 MEFs (ESC-like colony morphology, ALP staining)
Description: Unmodified MEFs derived from E13-14 embryos of the 129 mice were used for the initial screen. MEFs were plated on Matrigel at 3.5×10^4 cells/well of a 6-well plate and transduced with OK (retroviral vectors expressing Oct4 and Klf4) alone. Within 14-21 days, treated cells were assessed for the appearance of colonies that had the characteristic embryonic stem cell (ESC), colony morphology and were positive for the pluripotency marker alkaline phosphatase (ALP). Such OK-transduced cells generated only a few small non-compact colonies, which were weakly positive for ALP expression. These colonies initially appeared within 21 days after viral transduction and were difficult to expand. Therefore, such assay system offered a clean background for the identification of small molecules having desirable reprogramming inducing activity. Using this system, compounds from a library of around 2000 known small molecules (see Experimental Procedures below) were screened and were identified as hits when they induced the appearance of ESC colonies that were strongly positive for ALP within 14-21 days after treatment. This image-based method provided a more accurate assessment of reprogramming as compared to homogenous reporter-based assay. BIX appeared to have the strongest effect with reproducible induction of more than 1-2 compact ESC-like colonies with high ALP expression. We observed that when MEFs were treated with BIX after OK viral transduction, compact colonies with strong ALP expression could be readily detected within approximately 14-21 days. These cells were also positive for Nanog, Oct4 and SSEA-1 expression. […] However, the reprogramming efficiency in MEFs transduced with OK and treated with BIX was still low, about 2 colonies/3.5×10^4 cells, in comparison to the four factor-induced reprogramming of MEFs or the OK/BIX NPC reprogramming (Shi, Y. et al., Cell Stem Cell, 2:525-528 (2008)). Therefore, we conducted a second screen using a similar protocol, but where BIX was added to the basal media after OK viral transduction. This provided a more permissive platform to identify new small molecules that could further improve reprogramming efficiency. More importantly, this second screen could facilitate discovery of small molecules that impact reprogramming in a more specific manner, for example by acting on signal transduction pathways rather than on histone or DNA modifying enzymes. In this second screen, we again assayed the library of around 2000 known small molecules (see Experimental Procedures), and confirmed two compounds that were able to act in a synergistic manner with BIX to improve reprogramming based on the criteria of the screen. […] Therefore, RG108 was not pursued further for this study. […]

[2] = tested on: primary OG2 neural progenitor cells; test: iPS cell induction from neural progenitor cells by retroviral transduction and BIX01294 treatment
Description: The reporter neural progenitor cells were generated using a well established protocol by differentiating the Oct4-GiP mESCs grown in monolayer on gelatin in a chemically defined medium/CDM condition in the absence of serum and other growth factors/cytokines at low cell density for eight days, followed by neurophere formation and subsequent serial passaging in single cells in neural cell expansion media supplemented with 10 ng/ml of bFGF and EGF in monolayer for over six passages/24 days. The resulting neural progenitor cells were homogenous by cell morphology and neural marker expression, and were confirmed to be GFP negative and puromycin sensitive. Such neural progenitor cells plated in monolayer in conventional mESC growth media were transduced with combinations of four, three, or two of the four factors, followed by treating the transduced cells with individual small molecules from a small known drug collection in a typical 6-well format. The compound treatment and culture were continued for additional ten days before puromycin was added. The number of green and puro-resistant colonies was counted at day 14. In comparison to the only four-gene transduced neural cells as the positive control, compound conditions that generated more green colonies than the corresponding gene-only conditions were picked as primary hits. To further confirm these primary hit conditions, we chose to use a late passage of mouse CNS neural progenitor cells (Do, J. T. et al., Stem Cells 25, 1013-1020 (2007)) that were derived from fetal brain of OG2^+/−/ROSA26^+/− transgenic mice (which contain an Oct4-GFP reporter) and expanded in monolayer under the same neural CDM condition as the above with 10 ng/ml of bFGF and EGF. Such cells truly from a non-pluripotent tissue would be devoid of concerns of any contaminating ES cell in the above screening system, which is although highly unlikely with all appropriate controls. Similar culture conditions and reprogramming assays were performed using the OG2 neural progenitor cells except that puromycin was not used and green colonies were picked out and characterized by staining of Nanog, SSEA1 and ALP.
mESC-derived or primary OG2 mouse neural progenitor cells were plated into Matrigel (1:50, BD Biosciences) coated 6-well plates at 3.5×10^4 cells/well in the neural progenitor cell expansion media. After one day these cells were transduced with retrovirus for overnight, and the medium was changed into the mESC growth media [DMEM, 5% FBS, 10% KSR, 1× non-essential amino acids (Gibco), 2 mM L-glutamine (Gibco), 0.1 mM β-mercaptoethanol (Gibco) and 10^3 unit/ml LIF (Chemicon)] with or without BIX01294 (0.5-1 μM). GFP-positive iPS cell colonies appeared after 9-14 days, and were picked out and expanded on MEF feeder cells with the mESC growth media.

`COc1cc2nc(N3CCCN(C)CC3)nc(NC3CCN(Cc4ccccc4)CC3)c2cc1OC` [BIX01294] was tested, and the “proliferation of mES cells (cell number)” value (mES R1 cells) was “No significant difference”, the reprogramming efficiency ([1]; MEFs transduced with OK and treated with compound) was “about 2 colonies/3.5×10^4 cells” and the “number of ALP+ colonies that closely resemble the mESC morphology” value ([1]; OK-transduced MEFs) was “about 2 colonies”. For the same compound, the “induction of compact ESC-like colonies with high ALP expression” value ([1]; primary screen, compounds 0.5-2 μM, 14-21 days, 3.5×10^4 cells/well) was 1-2 colonies, the reprogramming efficiency ([2]; Klf4/Sox2/cMyc with BIX01294, absence of Oct4 expression) was “relatively low” and the kinetics of reprogramming ([2]; Oct4/Klf4 viral transduction, BIX01294 0.5-1 μM) was “didn't significantly shorten the kinetics of reprogramming”. For the same compound, the “reprogramming efficiency (GFP+ iPS cell colonies)” value ([2]; Oct4/Klf4 viral transduction, BIX01294 0.5-1 μM, 3.5×10^4 cells/well) was “significantly improve the reprogramming efficiency to or higher than the level of using viral transduction of all four factors”, the “time until GFP+ iPS cell colonies appeared” value ([2]; after transduction with Oct4/Klf4 retroviruses and BIX01294 treatment) was 12 days and the “generation of iPS cells” value ([2]; viral transduction of Klf4, Sox2 and cMyc, absence of Oct4 expression, three factors alone gave no colony) was “can also generate iPS cells”.
